Laboratory results from ChEMBL document CHEMBL1201862, “PubChem BioAssay data set” (2004).
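In this assay, cells in 96-well plates receive the compound at five concentrations for 48 hours. Endpoints are linearly interpolated between the surrounding concentrations. GI50: concentration for 50% inhibition of growth.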 Active and inactive are the calls of the source. Rule as the data show it: active = GI50 up to about 1.1 µM and inactive = higher.

Key:
Assay in all cases: growth of human tumour cells (NCI), 48 h
SW-620 = system: SW-620
A549 = system: A549
SK-MEL-28 = system: SK-MEL-28
COLO 205 = system: COLO 205
ACHN = system: ACHN
MCF7 = system: MCF7
HT-29 = system: HT-29
HOP-62 = system: HOP-62
BT-549 = system: BT-549
OVCAR-4 = system: OVCAR-4
MDA-N = system: MDA-N
LOX IMVI = system: LOX IMVI
NCI-H23 = system: NCI-H23
EKVX = system: EKVX
K562 = system: K562
RXF 393 = system: RXF 393
HL-60 = system: HL-60
SF-295 = system: SF-295
RPMI-8226 = system: RPMI-8226
UACC-62 = system: UACC-62
HCT-116 = system: HCT-116
SF-268 = system: SF-268
DU-145 = system: DU-145
Malme-3M = system: Malme-3M
A498 = system: A498
SN12C = system: SN12C
OVCAR-3 = system: OVCAR-3
786-0 = system: 786-0
SK-OV-3 = system: SK-OV-3
NCI-H460 = system: NCI-H460
KM12 = system: KM12
UACC-257 = system: UACC-257
HCC 2998 = system: HCC 2998
IGROV-1 = system: IGROV-1
OVCAR-8 = system: OVCAR-8
OVCAR-5 = system: OVCAR-5
SF-539 = system: SF-539
TK-10 = system: TK-10
T47D = system: T47D
UO-31 = system: UO-31
SK-MEL-5 = system: SK-MEL-5
MDA-MB-435 = system: MDA-MB-435
HCT-15 = system: HCT-15
MOLT-4 = system: MOLT-4
NCI-H226 = system: NCI-H226
SNB-75 = system: SNB-75
U-251 = system: U-251
NCI/ADR-RES = system: NCI/ADR-RES
SNB-19 = system: SNB-19
CAKI-1 = system: CAKI-1
MDA-MB-231 = system: MDA-MB-231
CCRF-CEM = system: CCRF-CEM
NCI-H522 = system: NCI-H522
SK-MEL-2 = system: SK-MEL-2
M14 = system: M14
PC-3 = system: PC-3
SR = system: SR
HOP-92 = system: HOP-92
Hs-578T = system: Hs-578T

SMILES: CCOC(=O)Cc1nc2nn(Cc3ccccc3)cc2c(=O)[nH]1
- GI50 (SW-620): > 100 µM (inactive)
- GI50 (A549): > 100 µM (inactive)
- GI50 (SK-MEL-28): > 100 µM (inactive)
- GI50 (COLO 205): > 100 µM (inactive)
- GI50 (ACHN): > 100 µM (inactive)
- GI50 (MCF7): > 100 µM (inactive)
- GI50 (HT-29): > 100 µM (inactive)
- GI50 (HOP-62): > 100 µM (inactive)
- GI50 (BT-549): > 100 µM (inactive)
- GI50 (OVCAR-4): > 100 µM (inactive)
- GI50 (MDA-N): > 100 µM (inactive)
- GI50 (LOX IMVI): > 100 µM (inactive)
- GI50 (NCI-H23): > 100 µM (inactive)
- GI50 (EKVX): > 100 µM (inactive)
- GI50 (K562): > 100 µM (inactive)
- GI50 (RXF 393): > 100 µM (inactive)
- GI50 (HL-60): > 100 µM (inactive)
- GI50 (SF-295): > 100 µM (inactive)
- GI50 (RPMI-8226): > 100 µM (inactive)
- GI50 (UACC-62): > 100 µM (inactive)
- GI50 (HCT-116): > 100 µM (inactive)
- GI50 (SF-268): > 100 µM (inactive)
- GI50 (DU-145): > 100 µM (inactive)
- GI50 (Malme-3M): > 100 µM (inactive)
- GI50 (A498): 19.3 µM (inactive)
- GI50 (SN12C): > 100 µM (inactive)
- GI50 (OVCAR-3): > 100 µM (inactive)
- GI50 (786-0): > 100 µM (inactive)
- GI50 (SK-OV-3): > 100 µM (inactive)
- GI50 (NCI-H460): > 100 µM (inactive)
- GI50 (KM12): > 100 µM (inactive)
- GI50 (UACC-257): > 100 µM (inactive)
- GI50 (HCC 2998): > 100 µM (inactive)
- GI50 (IGROV-1): > 100 µM (inactive)
- GI50 (OVCAR-8): > 100 µM (inactive)
- GI50 (OVCAR-5): > 100 µM (inactive)
- GI50 (SF-539): > 100 µM (inactive)
- GI50 (TK-10): > 100 µM (inactive)
- GI50 (T47D): > 100 µM (inactive)
- GI50 (UO-31): > 100 µM (inactive)
- GI50 (SK-MEL-5): > 100 µM (inactive)
- GI50 (MDA-MB-435): > 100 µM (inactive)
- GI50 (HCT-15): > 100 µM
- GI50 (MOLT-4): > 100 µM (inactive)
- GI50 (NCI-H226): > 100 µM (inactive)
- GI50 (SNB-75): > 100 µM (inactive)
- GI50 (U-251): > 100 µM (inactive)
- GI50 (NCI/ADR-RES): > 100 µM (inactive)
- GI50 (SNB-19): > 100 µM (inactive)
- GI50 (CAKI-1): > 100 µM (inactive)
- GI50 (MDA-MB-231): > 100 µM (inactive)
- GI50 (CCRF-CEM): > 100 µM (inactive)

SMILES: O=C(O)C[C@@H]1[C@@H](O)[C@@H](O)CN2C(=O)c3ccccc3[C@H]12
- GI50 (SW-620): > 100 µM (inactive)
- GI50 (A549): > 100 µM (inactive)
- GI50 (SK-MEL-28): > 100 µM (inactive)
- GI50 (NCI-H522): > 100 µM (inactive)
- GI50 (COLO 205): > 100 µM (inactive)
- GI50 (ACHN): > 100 µM (inactive)
- GI50 (MCF7): > 100 µM (inactive)
- GI50 (HT-29): > 100 µM (inactive)
- GI50 (HOP-62): > 100 µM (inactive)
- GI50 (BT-549): > 100 µM (inactive)
- GI50 (OVCAR-4): > 100 µM (inactive)
- GI50 (MDA-N): > 100 µM (inactive)
- GI50 (LOX IMVI): > 100 µM (inactive)
- GI50 (NCI-H23): > 100 µM (inactive)
- GI50 (SK-MEL-2): > 100 µM (inactive)
- GI50 (EKVX): > 100 µM (inactive)
- GI50 (K562): > 100 µM (inactive)
- GI50 (RXF 393): > 100 µM (inactive)
- GI50 (SF-295): > 100 µM (inactive)
- GI50 (RPMI-8226): > 100 µM (inactive)
- GI50 (UACC-62): > 100 µM (inactive)
- GI50 (HCT-116): > 100 µM (inactive)
- GI50 (SF-268): > 100 µM (inactive)
- GI50 (DU-145): > 100 µM (inactive)
- GI50 (Malme-3M): > 100 µM (inactive)
- GI50 (A498): > 100 µM (inactive)
- GI50 (SN12C): > 100 µM (inactive)
- GI50 (786-0): > 100 µM (inactive)
- GI50 (SK-OV-3): > 100 µM (inactive)
- GI50 (NCI-H460): > 100 µM (inactive)
- GI50 (KM12): > 100 µM (inactive)
- GI50 (UACC-257): > 100 µM (inactive)
- GI50 (HCC 2998): > 100 µM (inactive)
- GI50 (IGROV-1): > 100 µM (inactive)
- GI50 (OVCAR-8): > 100 µM (inactive)
- GI50 (M14): > 100 µM (inactive)
- GI50 (OVCAR-5): > 100 µM (inactive)
- GI50 (PC-3): > 100 µM (inactive)
- GI50 (SR): > 100 µM (inactive)
- GI50 (SF-539): > 100 µM (inactive)
- GI50 (TK-10): > 100 µM (inactive)
- GI50 (T47D): > 100 µM (inactive)
- GI50 (UO-31): > 100 µM (inactive)
- GI50 (SK-MEL-5): > 100 µM (inactive)
- GI50 (MDA-MB-435): > 100 µM (inactive)
- GI50 (HCT-15): > 100 µM
- GI50 (MOLT-4): > 100 µM (inactive)
- GI50 (NCI-H226): > 100 µM (inactive)
- GI50 (SNB-75): > 100 µM (inactive)
- GI50 (U-251): > 100 µM (inactive)
- GI50 (NCI/ADR-RES): > 100 µM (inactive)
- GI50 (SNB-19): > 100 µM (inactive)
- GI50 (CAKI-1): > 100 µM (inactive)
- GI50 (MDA-MB-231): > 100 µM (inactive)

SMILES: CCOP(=O)(OCC)/C(C#N)=C/c1ncc[nH]1
- GI50 (SW-620): > 100 µM (inactive)
- GI50 (A549): > 100 µM (inactive)
- GI50 (SK-MEL-28): > 100 µM (inactive)
- GI50 (NCI-H522): > 100 µM (inactive)
- GI50 (COLO 205): > 100 µM (inactive)
- GI50 (ACHN): > 100 µM (inactive)
- GI50 (HOP-92): > 100 µM (inactive)
- GI50 (MCF7): > 100 µM (inactive)
- GI50 (HT-29): > 100 µM (inactive)
- GI50 (HOP-62): > 100 µM (inactive)
- GI50 (BT-549): > 100 µM (inactive)
- GI50 (OVCAR-4): > 100 µM (inactive)
- GI50 (MDA-N): > 100 µM (inactive)
- GI50 (LOX IMVI): > 100 µM (inactive)
- GI50 (NCI-H23): > 100 µM (inactive)
- GI50 (SK-MEL-2): > 100 µM (inactive)
- GI50 (EKVX): > 100 µM (inactive)
- GI50 (K562): > 100 µM (inactive)
- GI50 (RXF 393): > 100 µM (inactive)
- GI50 (HL-60): > 100 µM (inactive)
- GI50 (SF-295): > 100 µM (inactive)
- GI50 (RPMI-8226): > 100 µM (inactive)
- GI50 (UACC-62): > 100 µM (inactive)
- GI50 (HCT-116): > 100 µM (inactive)
- GI50 (SF-268): > 100 µM (inactive)
- GI50 (DU-145): > 100 µM (inactive)
- GI50 (Malme-3M): > 100 µM (inactive)
- GI50 (A498): > 100 µM (inactive)
- GI50 (SN12C): > 100 µM (inactive)
- GI50 (OVCAR-3): > 100 µM (inactive)
- GI50 (786-0): > 100 µM (inactive)
- GI50 (SK-OV-3): > 100 µM (inactive)
- GI50 (NCI-H460): > 100 µM (inactive)
- GI50 (KM12): > 100 µM (inactive)
- GI50 (UACC-257): > 100 µM (inactive)
- GI50 (HCC 2998): > 100 µM (inactive)
- GI50 (IGROV-1): > 10 µM (inactive)
- GI50 (OVCAR-8): > 100 µM (inactive)
- GI50 (M14): > 100 µM (inactive)
- GI50 (OVCAR-5): > 100 µM (inactive)
- GI50 (PC-3): > 100 µM (inactive)
- GI50 (SR): > 100 µM (inactive)
- GI50 (SF-539): 8.32 µM (inactive)
- GI50 (Hs-578T): > 100 µM (inactive)
- GI50 (UO-31): > 100 µM (inactive)
- GI50 (SK-MEL-5): > 100 µM (inactive)
- GI50 (MDA-MB-435): > 100 µM (inactive)
- GI50 (HCT-15): > 10 µM
- GI50 (MOLT-4): > 100 µM (inactive)
- GI50 (NCI-H226): > 100 µM (inactive)
- GI50 (SNB-75): > 100 µM (inactive)
- GI50 (U-251): > 100 µM (inactive)
- GI50 (NCI/ADR-RES): > 100 µM (inactive)
- GI50 (SNB-19): > 100 µM (inactive)
- GI50 (CAKI-1): > 100 µM (inactive)
- GI50 (MDA-MB-231): > 100 µM (inactive)
- GI50 (CCRF-CEM): > 100 µM (inactive)
